In US9988400B2 (Genentech, Inc., priority 2013, dated 2018):

Target: T1, HEK cells stably transfected with tetracycline inducible hNR1 and hNR2A (Homo sapiens, UniProt Q05586+Q12879)
T1 construct: expressed in transfected cells; host or cells: HEK cells, stably transfected, tetracycline/doxycycline inducible
Test: Assay 1: Cell-Based Assay, cytosolic calcium response to positive allosteric modulators (with 30 μM glycine and 300 nM L-glutamate, EC30)
Conditions: for EC50: cytosolic calcium response, with 30 μM glycine and 300 nM L-glutamate (EC30), — = no plateau was reached; for Max %: responses scaled relative to 100 μM L-glutamate maximal response (100%) and 0 μM L-glutamate (0%)
Outline: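 Cells induced 24 h with 7.5 μg mL^−1 doxycycline plus 500 μM (+)-ketamine, loaded 60 min at 37 °C with calcium dye in Mg-free HBSS (1.8 mM Ca, probenecid, 10 μM (+)-ketamine, pH 7.15). Peak RFU over 5 min after compound addition, scaled to 100 μM L-glutamate (100%) and 0 μM (0%); four-parameter Hill fit for EC50, max % if no plateau.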

T1 sequence (Q12879 23-1464, other chains not shown): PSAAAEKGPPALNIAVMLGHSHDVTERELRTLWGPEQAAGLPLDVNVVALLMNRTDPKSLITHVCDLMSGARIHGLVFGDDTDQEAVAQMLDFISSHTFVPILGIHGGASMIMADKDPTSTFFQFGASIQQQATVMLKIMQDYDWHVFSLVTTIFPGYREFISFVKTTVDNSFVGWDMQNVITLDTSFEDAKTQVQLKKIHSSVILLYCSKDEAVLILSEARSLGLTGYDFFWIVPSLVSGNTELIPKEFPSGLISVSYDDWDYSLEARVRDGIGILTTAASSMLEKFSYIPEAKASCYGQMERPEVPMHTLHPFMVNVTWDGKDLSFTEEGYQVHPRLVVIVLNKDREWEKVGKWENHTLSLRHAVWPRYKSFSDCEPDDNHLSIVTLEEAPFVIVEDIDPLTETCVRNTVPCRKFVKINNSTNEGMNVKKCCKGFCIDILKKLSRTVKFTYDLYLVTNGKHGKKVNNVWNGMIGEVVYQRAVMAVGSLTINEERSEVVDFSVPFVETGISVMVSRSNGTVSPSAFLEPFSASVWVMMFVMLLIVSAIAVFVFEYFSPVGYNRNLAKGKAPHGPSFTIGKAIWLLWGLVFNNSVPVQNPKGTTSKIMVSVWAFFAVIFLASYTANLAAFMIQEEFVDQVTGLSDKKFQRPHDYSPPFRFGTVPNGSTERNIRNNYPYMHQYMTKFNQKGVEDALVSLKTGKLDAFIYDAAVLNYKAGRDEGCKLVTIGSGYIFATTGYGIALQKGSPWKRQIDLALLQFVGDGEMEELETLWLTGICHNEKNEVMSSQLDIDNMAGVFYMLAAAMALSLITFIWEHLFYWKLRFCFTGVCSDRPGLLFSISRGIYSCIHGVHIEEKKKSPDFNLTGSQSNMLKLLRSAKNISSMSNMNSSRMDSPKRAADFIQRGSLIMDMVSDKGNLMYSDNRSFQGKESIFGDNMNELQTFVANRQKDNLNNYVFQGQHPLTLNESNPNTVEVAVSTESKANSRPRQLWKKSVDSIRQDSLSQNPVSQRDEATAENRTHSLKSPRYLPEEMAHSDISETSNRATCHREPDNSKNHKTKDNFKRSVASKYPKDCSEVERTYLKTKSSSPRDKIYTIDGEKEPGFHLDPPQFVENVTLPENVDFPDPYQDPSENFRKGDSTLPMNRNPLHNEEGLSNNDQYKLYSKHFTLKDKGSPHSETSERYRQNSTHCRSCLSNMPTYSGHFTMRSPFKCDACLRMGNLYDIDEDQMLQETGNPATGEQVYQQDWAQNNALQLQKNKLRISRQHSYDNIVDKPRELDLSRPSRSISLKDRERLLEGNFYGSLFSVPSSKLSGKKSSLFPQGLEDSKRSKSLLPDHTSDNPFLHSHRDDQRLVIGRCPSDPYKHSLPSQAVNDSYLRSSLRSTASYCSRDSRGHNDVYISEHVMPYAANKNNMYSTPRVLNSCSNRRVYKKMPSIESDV

| SMILES | EC50 (Table 3) | Max % (Table 2) | EC50 (Table 2) |
| --- | --- | --- | --- |
| CCNC(=O)c1c(C(C)C)sc2nc(Cc3cccc(C(F)(F)F)c3F)cc(=O)n12 [compound 87, N-ethyl-7-[[2-fluoro-3-(trifluoromethyl)phenyl]methyl]-2-isopropyl-5-oxo-thiazolo[3,2-a]pyrimidine-3-carboxamide] | 42000 nM | – | – |
| CCNC(=O)c1c(C)sc2nc(Cc3cccc(C#N)c3)cc(=O)n12 [Example 21.11, 7-(3-cyanobenzyl)-N-ethyl-2-methyl-5-oxo-5H-thiazolo[3,2-a]pyrimidine-3-carboxamide] | – | 47% | – |
| CCN(Cc1cc(=O)n2c(CN3CCC34COC4)c(C)sc2n1)c1ccc(F)cc1 [Example 10.21, 7-[(N-ethyl-4-fluoro-anilino)methyl]-2-methyl-3-(6-oxa-1-azaspiro[3.3]heptan-1-ylmethyl)thiazolo[3,2-a]pyrimidin-5-one] | – | 117% | – |
| Cc1cc(Cl)n(Cc2cc(=O)n3c([C@@H]4C[C@H]4CO)c(C)sc3n2)n1 (relative stereo) [Example 15.4, 7-((5-chloro-3-methyl-1H-pyrazol-1-yl)methyl)-3-(trans-2-(hydroxymethyl)cyclopropyl)-2-methyl-5H-thiazolo[3,2-a]pyrimidin-5-one] | – | 137% | 782 nM |
| CC(=O)c1c(C)sc2nc(Cn3nc(C(F)(F)F)cc3Cl)cc(=O)n12 [compound 119, 3-acetyl-7-[[5-chloro-3-(trifluoromethyl)pyrazol-1-yl]methyl]-2-methyl-thiazolo[3,2-a]pyrimidin-5-one] | 325 nM | – | – |
| Cc1sc2nc(Cc3cccc(C(F)(F)F)c3F)cc(=O)n2c1C1CC1C#N (stereo not drawn) [compound 131, 2-[7-[[2-fluoro-3-(trifluoromethyl)phenyl]methyl]-2-methyl-5-oxo-thiazolo[3,2-a]pyrimidin-3-yl]cyclopropanecarbonitrile] | 681 nM | – | – |
| Cc1sc2nc(COc3ccc(F)cc3)cc(=O)n2c1C(=O)NCC#N [Example 1.1, N-(cyanomethyl)-7-((4-fluorophenoxy)methyl)-2-methyl-5-oxo-5H-thiazolo[3,2-a]pyrimidine-3-carboxamide] | – | 63% | 9600 nM |
| CC(C)c1sc2nc(Cn3nc(C(F)(F)F)cc3C3CC3)cc(=O)n2c1C1CC1CO (stereo not drawn) [Example 15.24, 7-[[5-cyclopropyl-3-(trifluoromethyl)pyrazol-1-yl]methyl]-3[2-(hydroxymethyl)cyclopropyl]-2-isopropyl-thiazolo[3,2-a]pyrimidin-5-one] | – | 138% | 1400 nM |
| Cc1sc2nc(COc3ccc(F)cc3)cc(=O)n2c1C1CC1CO (single isomer, unassigned) [Example 4.3, 7-(4-Fluorophenoxymethyl)-3-[trans-2-(hydroxymethyl)cyclopropyl]-2-methyl-5H-[1,3]thiazolo[3,2-a]pyrimidin-5-one] | – | 71.6% | 20500 nM |
| CNC(=O)c1c(C)sc2nc(Cc3cc(F)c(F)cc3Cl)cc(=O)n12 [compound 16, 7-[(2-chloro-4,5-difluoro-phenyl)methyl]-N,2-dimethyl-5-oxo-thiazolo[3,2-a]pyrimidine-3-carboxamide] | 15500 nM | – | – |
| CC(=O)c1c(C(F)(F)F)sc2nc(Cc3cccc(C#N)c3F)cc(=O)n12 [compound 257, 3-[[3-acetyl-5-oxo-2-(trifluoromethyl)thiazolo[3,2-a]pyrimidin-7-yl]methyl]-2-fluoro-benzonitrile] | 20500 nM | – | – |
| Cc1sc2nc(Cn3nc(C(F)(F)F)cc3C)cc(=O)n2c1-c1cncnc1 [Example 15.32, 2-methyl-7-((5-methyl-3-(trifluoromethyl)-1H-pyrazol-1-yl)methyl)-3-(pyrimidin-5-yl)-5H-thiazolo [3,2-a]pyrimidin-5-one] | – | 94.8% | – |
| Cc1sc2nc(COc3ccc(F)cc3)cc(=O)n2c1C(=O)NCCO [Example 1.11, 7-(4-Fluorophenoxymethyl)-N-(2-hydroxyethyl)-2-methyl-5-oxo-5H-[1,3]thiazolo[3,2-a]pyrimidine-3-carboxamide] | – | 73% | – |
| CCNC(=O)c1c(C)sc2nc(CN(C)c3ccc(F)cn3)cc(=O)n12 [compound 143, N-ethyl-7-[[(5-fluoro-2-pyridyl)-methyl-amino]methyl]-2-methyl-5-oxo-thiazolo[3,2-a]pyrimidine-3-carboxamide] | 12000 nM | – | – |
| Cc1sc2nc(Cn3nc(C(F)(F)F)cc3Br)cc(=O)n2c1C1CC1C#N (stereo not drawn) [compound 234, 2-[7-[[5-bromo-3-(trifluoromethyl)pyrazol-1-yl]methyl]-2-methyl-5-oxo-thiazolo[3,2-a]pyrimidin-3-yl]cyclopropanecarbonitrile] | 34.2 nM | – | – |
| Cc1sc2nc(Cn3ccc(C(F)(F)F)n3)cc(=O)n2c1C#N [Example 17.1, 2-methyl-5-oxo-7-((3-(trifluoromethyl)-1H-pyrazol-1-yl)methyl)-5H-thiazolo[3,2-a]pyrimidine-3-carbonitrile] | – | 107% | – |
| Cc1sc2nc(Cn3nc(C(F)(F)F)cc3Cl)cc(=O)n2c1/C=C\C#N [compound 263, (Z)-3-[7-[[5-chloro-3-(trifluoromethyl)pyrazol-1-yl]methyl]-2-methyl-5-oxo-thiazolo[3,2-a]pyrimidin-3-yl]prop-2-enenitrile] | 501 nM | – | – |
| CCN(Cc1cc(=O)n2c(C3CC3C#N)c(C)sc2n1)c1ccc(F)cc1 (stereo not drawn) [Example 14.2, 2-(7-[[ethyl(4-fluorophenyl)amino]methyl]-2-methyl-5-oxo-5H-[1,3]thiazolo[3,2-a]pyrimidin-3-yl)cyclopropane-1-carbonitrile] | – | 205% | 122 nM |
| CC[C@H](C)NC(=O)c1c(C)sc2nc(Cc3cccc(C(F)(F)F)c3F)cc(=O)n12 [compound 180, 7-[[2-fluoro-3-(trifluoromethyl)phenyl]methyl]-2-methyl-N-[(1S)-1-methylpropyl]-5-oxo-thiazolo[3,2-a]pyrimidine-3-carboxamide] | 2940 nM | – | – |
| Cc1sc2nc(Cn3ncc4ccccc43)cc(=O)n2c1[C@@H]1C[C@H]1CO (relative stereo) [Example 15.6, 7-((1H-indazol-1-yl)methyl)-3-(trans-2-(hydroxymethyl)cyclopropyl)-2-methyl-5H-thiazolo[3,2-a]pyrimidin-5-one] | – | 138% | 9200 nM |
| CCN(Cc1cc(=O)n2c(CN3CCCC3)c(C)sc2n1)c1ccc(F)cc1 [Example 10.9, 7-[(N-ethyl-4-fluoro-anilino)methyl]-2-methyl-3-(pyrrolidin-1-ylmethyl)thiazolo[3,2-a]pyrimidin-5-one] | – | 72.1% | – |
| CNC(=O)c1c(C)sc2nc(Cc3cccc(C4CC4)c3)cc(=O)n12 [Example 21.52, 7-[(3-cyclopropylphenyl)methyl]-N,2-dimethyl-5-oxo-thiazolo[3,2-a]pyrimidine-3-carboxamide] | – | 72.9% | – |
| CNC(=O)c1c(C(F)(F)F)sc2nc(Cc3cccc(Cl)c3F)cc(=O)n12 [compound 64, 7-[(3-chloro-2-fluoro-phenyl)methyl]-N-methyl-5-oxo-2-(trifluoromethyl)thiazolo[3,2-a]pyrimidine-3-carboxamide] | 12100 nM | – | – |
| N#CC1CC1c1c(C(F)(F)F)sc2nc(Cn3nc(Cl)cc3C(F)(F)F)cc(=O)n12 (stereo not drawn) [compound 145, 2-[7-[[3-chloro-5-(trifluoromethyl)pyrazol-1-yl]methyl]-5-oxo-2-(trifluoromethyl)thiazolo[3,2-a]pyrimidin-3-yl]cyclopropanecarbonitrile] | 132 nM | – | – |
